{"source": "ChEMBL document CHEMBL1143491", "about": "“Pentacyclic triterpenes. Part 1: the first examples of naturally occurring pentacyclic triterpenes as a new class of inhibitors of glycogen phosphorylases” (Bioorg Med Chem Lett, 2005)", "data": [{"target": "T1, Glycogen phosphorylase, liver form (Rattus norvegicus, UniProt P09811)", "T1 sequence (P09811 whole entry)": "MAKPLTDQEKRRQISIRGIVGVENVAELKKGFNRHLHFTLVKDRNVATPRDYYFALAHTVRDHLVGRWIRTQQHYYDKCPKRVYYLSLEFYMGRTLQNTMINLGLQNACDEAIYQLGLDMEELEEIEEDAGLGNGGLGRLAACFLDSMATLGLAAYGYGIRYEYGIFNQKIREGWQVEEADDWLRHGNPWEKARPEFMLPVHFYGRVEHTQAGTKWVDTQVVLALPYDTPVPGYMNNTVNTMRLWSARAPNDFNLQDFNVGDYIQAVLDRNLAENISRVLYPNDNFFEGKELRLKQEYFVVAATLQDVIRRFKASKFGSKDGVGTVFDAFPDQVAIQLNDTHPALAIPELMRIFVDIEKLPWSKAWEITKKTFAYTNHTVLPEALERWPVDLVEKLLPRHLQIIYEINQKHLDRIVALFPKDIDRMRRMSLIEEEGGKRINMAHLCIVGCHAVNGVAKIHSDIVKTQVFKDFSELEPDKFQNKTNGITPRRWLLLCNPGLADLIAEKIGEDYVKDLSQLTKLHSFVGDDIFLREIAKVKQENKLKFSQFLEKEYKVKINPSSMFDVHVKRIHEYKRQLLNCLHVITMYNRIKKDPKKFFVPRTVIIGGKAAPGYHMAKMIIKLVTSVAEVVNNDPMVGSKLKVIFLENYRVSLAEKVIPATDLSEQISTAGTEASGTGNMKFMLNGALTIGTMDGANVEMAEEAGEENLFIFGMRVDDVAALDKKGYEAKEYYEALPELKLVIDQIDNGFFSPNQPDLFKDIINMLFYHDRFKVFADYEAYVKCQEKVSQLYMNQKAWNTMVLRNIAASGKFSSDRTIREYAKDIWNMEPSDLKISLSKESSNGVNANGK", "experiment": "Inhibitory concentration against rat liver glycogen phosphorylase", "units": {"IC50": "µM"}, "values": [{"smiles": "Cn1c(=O)c2c(ncn2C)n(C)c1=O", "note": "[CAFFEINE]", "IC50": 648}, {"smiles": "C[C@H]1[C@H](C)CC[C@]2(C(=O)O)CC[C@]3(C)C(=CC[C@@H]4[C@@]5(C)C[C@@H](O)[C@H](O)C(C)(C)[C@@H]5CC[C@]43C)[C@H]12", "note": "[COROSOLIC ACID]", "IC50": 101}, {"smiles": "CC1(C)CC[C@]2(C(=O)O)CC[C@]3(C)C(=CC[C@@H]4[C@@]5(C)C[C@@H](O)[C@H](O)C(C)(C)[C@@H]5CC[C@]43C)[C@@H]2C1", "note": "[MASLINIC ACID]", "IC50": 99}]}]}
